# Data published in ChEMBL document CHEMBL1201862, “PubChem BioAssay data set” (2004).
# Calls of active or inactive are those of the source.
# Experiments:
# [1] = target: T1, Mucolipin-3 (Homo sapiens, UniProt Q8TDD5); assay: Dose response cell-based high-throughput screening assay for agonists of the transient receptor potential channel ML3 (TRPML3). [Related pubchem assays: 1526, 1424, 1448 ]; type: functional
# T1 sequence (Q8TDD5 whole entry): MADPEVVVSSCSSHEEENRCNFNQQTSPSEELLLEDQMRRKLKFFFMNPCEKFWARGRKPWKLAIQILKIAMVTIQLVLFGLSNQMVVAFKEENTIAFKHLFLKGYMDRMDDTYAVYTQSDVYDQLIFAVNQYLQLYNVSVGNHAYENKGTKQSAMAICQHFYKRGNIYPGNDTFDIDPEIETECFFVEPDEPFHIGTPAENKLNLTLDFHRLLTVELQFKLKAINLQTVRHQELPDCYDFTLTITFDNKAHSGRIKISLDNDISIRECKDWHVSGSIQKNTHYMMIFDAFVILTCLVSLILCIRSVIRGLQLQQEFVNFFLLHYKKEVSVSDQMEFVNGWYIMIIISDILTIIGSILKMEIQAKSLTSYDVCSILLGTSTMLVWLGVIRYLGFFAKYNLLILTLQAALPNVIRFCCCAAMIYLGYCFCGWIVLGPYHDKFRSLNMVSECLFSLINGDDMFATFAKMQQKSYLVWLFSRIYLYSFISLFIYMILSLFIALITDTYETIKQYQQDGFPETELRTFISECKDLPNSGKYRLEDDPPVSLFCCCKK
# [2] = target: Ion channel NompC (Danio rerio, UniProt Q7T1G6); assay: Fluorescence counterscreen assay for TRPML3 agonists: dose response cell-based high-throughput screening assay to identify agonists of the transient receptor potential channel N1 (TRPN1). [Related pubchem assays: 1526, 1424, 1448 ]; type: functional
# [3] = Luminescence Cell-Based Dose Retest to Confirm Inhibitors of Cancer Stem Cells. [Related pubchem assays (depositor defined):AID2717, AID2721]; type: functional; settings: Homo sapiens
# [4] = target: Disintegrin and metalloproteinase domain-containing protein 17 (Homo sapiens, UniProt P78536); assay: inhibition of ADAM17 substrate cleavage – biochemical, quenched FRET substrate, counter-screen for ADAM10 exosite inhibitor project, dose response (AID 743253)
# [5] = Trypanosoma cruzi growth suppression in host cells – NIH3T3 host cells, beta-gal luminescence, confirmation (AID 2044); type: functional, cell-based;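 note: intracellular parasites grown in NIH/3T3 mouse fibroblasts as host cells; luminescent beta-galactosidase reporter signal from transgenic T. cruzi replicating inside host cells; inhibitors lower the luminescence signal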
# [6] = NIH3T3 cell viability loss – ATP luminescence, mouse fibroblasts, counter-screen, dose response (AID 2010); type: functional, cell-based;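 note: cells exposed to compound for about 90 hours before reading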
# [7] = target: T2, Exodeoxyribonuclease V (Escherichia coli (strain K12), UniProt P04993+P07648+P08394); assay: RecBCD inhibition via phage-restricted bacterial growth – absorbance, V66 E. coli, mutant T4 phage, counter-screen for AddAB inhibitor project, dose response (AID 492957); type: functional, cell-based, Escherichia coli str. K-12 substr. MG1655
# T2 sequence (P04993 whole entry): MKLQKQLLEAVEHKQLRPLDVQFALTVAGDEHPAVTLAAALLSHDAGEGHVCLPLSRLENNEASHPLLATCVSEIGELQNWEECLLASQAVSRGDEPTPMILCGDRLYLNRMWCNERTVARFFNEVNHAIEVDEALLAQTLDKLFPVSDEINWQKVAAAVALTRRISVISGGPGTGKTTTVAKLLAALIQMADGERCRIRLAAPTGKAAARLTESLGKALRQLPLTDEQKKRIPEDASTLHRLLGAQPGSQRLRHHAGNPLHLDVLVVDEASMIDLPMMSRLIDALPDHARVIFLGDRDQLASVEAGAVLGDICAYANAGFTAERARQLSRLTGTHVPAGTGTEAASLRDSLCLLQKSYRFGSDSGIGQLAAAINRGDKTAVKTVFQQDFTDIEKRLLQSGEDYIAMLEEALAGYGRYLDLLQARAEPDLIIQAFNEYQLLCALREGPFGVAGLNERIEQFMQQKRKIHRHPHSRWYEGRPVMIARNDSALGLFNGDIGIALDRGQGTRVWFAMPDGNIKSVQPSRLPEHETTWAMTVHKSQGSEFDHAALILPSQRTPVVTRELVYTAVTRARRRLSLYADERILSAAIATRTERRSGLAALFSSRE
# T2 sequence (P07648 whole entry): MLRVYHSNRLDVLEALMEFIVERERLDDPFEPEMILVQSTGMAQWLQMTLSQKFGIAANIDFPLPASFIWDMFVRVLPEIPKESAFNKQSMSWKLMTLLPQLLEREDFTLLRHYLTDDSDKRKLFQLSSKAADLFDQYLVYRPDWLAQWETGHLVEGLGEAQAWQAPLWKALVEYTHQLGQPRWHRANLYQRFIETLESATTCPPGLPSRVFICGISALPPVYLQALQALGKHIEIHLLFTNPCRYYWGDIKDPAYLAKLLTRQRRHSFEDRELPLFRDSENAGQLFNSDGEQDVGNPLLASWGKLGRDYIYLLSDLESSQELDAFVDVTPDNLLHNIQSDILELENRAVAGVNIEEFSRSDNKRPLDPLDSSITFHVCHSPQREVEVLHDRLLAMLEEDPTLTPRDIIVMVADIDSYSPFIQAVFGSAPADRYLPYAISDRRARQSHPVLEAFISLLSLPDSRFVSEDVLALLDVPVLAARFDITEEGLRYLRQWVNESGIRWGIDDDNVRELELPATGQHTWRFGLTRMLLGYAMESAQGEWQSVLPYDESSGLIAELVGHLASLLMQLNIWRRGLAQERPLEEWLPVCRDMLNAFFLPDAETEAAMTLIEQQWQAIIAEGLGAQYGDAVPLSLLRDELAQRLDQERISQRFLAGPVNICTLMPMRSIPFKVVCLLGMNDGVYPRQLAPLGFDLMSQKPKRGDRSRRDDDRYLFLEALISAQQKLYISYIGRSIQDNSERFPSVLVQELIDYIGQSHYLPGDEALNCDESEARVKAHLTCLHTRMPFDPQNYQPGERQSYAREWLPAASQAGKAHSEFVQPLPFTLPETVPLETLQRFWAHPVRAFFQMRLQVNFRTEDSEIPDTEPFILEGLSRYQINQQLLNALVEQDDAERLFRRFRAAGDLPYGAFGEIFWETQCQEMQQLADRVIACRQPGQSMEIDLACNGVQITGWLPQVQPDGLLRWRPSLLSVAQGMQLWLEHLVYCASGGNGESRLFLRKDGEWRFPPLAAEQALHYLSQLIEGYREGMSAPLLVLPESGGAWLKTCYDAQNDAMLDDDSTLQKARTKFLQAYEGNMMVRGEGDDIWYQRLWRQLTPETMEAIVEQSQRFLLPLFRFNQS
# T2 sequence (P08394 whole entry): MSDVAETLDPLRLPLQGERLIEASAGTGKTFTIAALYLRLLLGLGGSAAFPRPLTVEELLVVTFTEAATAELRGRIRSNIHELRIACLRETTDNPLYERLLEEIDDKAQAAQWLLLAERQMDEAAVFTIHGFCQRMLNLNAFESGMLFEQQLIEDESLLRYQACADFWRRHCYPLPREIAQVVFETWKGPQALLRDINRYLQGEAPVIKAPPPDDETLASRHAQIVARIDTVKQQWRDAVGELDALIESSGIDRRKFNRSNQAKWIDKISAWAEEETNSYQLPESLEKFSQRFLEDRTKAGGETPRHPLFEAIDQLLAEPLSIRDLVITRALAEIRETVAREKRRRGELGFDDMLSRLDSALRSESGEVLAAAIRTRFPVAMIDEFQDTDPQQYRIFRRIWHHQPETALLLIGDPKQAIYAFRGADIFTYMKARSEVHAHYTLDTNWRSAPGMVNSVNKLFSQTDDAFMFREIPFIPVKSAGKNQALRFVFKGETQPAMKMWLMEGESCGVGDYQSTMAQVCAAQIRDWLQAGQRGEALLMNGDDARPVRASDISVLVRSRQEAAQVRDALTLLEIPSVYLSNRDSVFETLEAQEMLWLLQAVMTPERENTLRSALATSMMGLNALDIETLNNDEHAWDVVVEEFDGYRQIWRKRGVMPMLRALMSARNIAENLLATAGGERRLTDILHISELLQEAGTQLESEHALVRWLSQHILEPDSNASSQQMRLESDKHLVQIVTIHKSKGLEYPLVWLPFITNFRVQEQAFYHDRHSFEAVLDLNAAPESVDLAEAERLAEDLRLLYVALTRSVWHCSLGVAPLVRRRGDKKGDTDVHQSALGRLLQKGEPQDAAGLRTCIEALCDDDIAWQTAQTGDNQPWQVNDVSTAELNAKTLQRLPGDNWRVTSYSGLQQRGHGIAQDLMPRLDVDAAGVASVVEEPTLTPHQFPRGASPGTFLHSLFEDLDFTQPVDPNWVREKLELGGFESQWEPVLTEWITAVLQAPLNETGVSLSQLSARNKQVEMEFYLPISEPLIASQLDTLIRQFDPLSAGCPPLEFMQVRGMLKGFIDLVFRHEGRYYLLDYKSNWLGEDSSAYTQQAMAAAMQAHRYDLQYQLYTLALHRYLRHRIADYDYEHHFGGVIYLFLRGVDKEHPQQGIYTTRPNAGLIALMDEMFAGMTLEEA
# [8] = target: Nonstructural protein 1 (Influenza A virus, UniProt Q194T2); type: functional, Influenza A virus (A/California/07/2009(H1N1))
# [9] = Counterscreen for AddAB inhibitors: absorbance-based bacterial cell-based high throughput dose response assay for inhibitors of bacterial viability. [Related pubchem assays (depositor defined):AID435030, AID449728, AID449731, AID488942, AID488955, AID488956]; type: functional
# [10] = target: Galanin receptor type 3 (Homo sapiens, UniProt O60755); assay: Fluorescence-based cell-based primary high throughput dose response assay to identify antagonists of the Galanin Receptor 3 (GalR3).; type: functional
# [11] = cells; type: functional, cell-based; settings: HEK-CNG
# [12] = cells
# [13] = target: Paired box protein Pax-8 (Homo sapiens, UniProt Q06710); assay: PAX8 transcriptional activity inhibition in RMG-I – RMG-I cells, luciferase, cherry-pick, dose response (AID 687027); type: functional, cell-based;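 note: luciferase reporter driven by Pax8 target thyroperoxidase promoter measured by SteadyGlo luminescence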
# [14] = A2780 cell killing – plate reader, dry powder samples, cytotoxicity control, dose response (AID 743046); type: functional, cell-based
# [15] = OVCAR-3 cell viability loss – plate reader, dry powder samples, PAX8 inhibitor project, dose response (AID 743044); type: functional, cell-based
# [16] = IGROV1 cell killing – plate reader, dry powder samples, PAX8 inhibitor project, dose response (AID 743043); type: functional, cell-based; settings: IGROV-1
# [17] = OVCAR8 cell viability loss – plate reader, dry powder samples, PAX8 project, dose response (AID 743197); type: functional, cell-based; settings: OVCAR-8
# [18] = anti-trypanosomal activity in BESM host cells – imaging, CA-I/72 strain, bovine embryo skeletal muscle, dry powder, dose response (AID 651885); type: functional, cell-based
# [19] = target: Potassium channel subfamily K member 9 (Homo sapiens, UniProt Q9NPC2); assay: KCNK9 flux blockade, concentration-response – cell-based, FluxOR thallium flux, selectivity assay for TASK1 inhibitor project, SAR follow-up (AID 652211); type: functional;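 note: potency is for inhibitors of the channel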
# [20] = target: Potassium channel subfamily K member 3 (Rattus norvegicus, UniProt O54912); assay: SAR analysis for the identification of selective inhibitors of the two-pore domain potassium channel TASK1(KCNK3):Automated Electrophysiology.; type: functional
# [21] = target: Potassium channel subfamily K member 3 (Homo sapiens, UniProt O14649); assay: inhibition of human KCNK3 channel flux – CHO cells, FluxOR thallium flux, SAR follow-up (AID 652212); type: functional
# Potassium channel subfamily K member 3 (Homo sapiens, UniProt O14649), sequence (O14649 whole entry): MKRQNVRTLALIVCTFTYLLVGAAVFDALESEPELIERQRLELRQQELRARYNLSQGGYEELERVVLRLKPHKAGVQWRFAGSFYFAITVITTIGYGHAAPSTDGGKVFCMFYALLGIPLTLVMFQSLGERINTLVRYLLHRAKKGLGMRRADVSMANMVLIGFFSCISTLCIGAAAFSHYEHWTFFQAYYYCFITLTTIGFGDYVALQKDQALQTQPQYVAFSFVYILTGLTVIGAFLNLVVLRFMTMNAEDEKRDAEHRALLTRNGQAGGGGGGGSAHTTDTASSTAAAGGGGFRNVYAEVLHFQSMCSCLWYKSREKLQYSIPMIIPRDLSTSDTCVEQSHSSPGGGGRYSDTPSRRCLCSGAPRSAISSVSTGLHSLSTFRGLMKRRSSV
# Disintegrin and metalloproteinase domain-containing protein 17, sequence (P78536 whole entry, the tested form may be a part): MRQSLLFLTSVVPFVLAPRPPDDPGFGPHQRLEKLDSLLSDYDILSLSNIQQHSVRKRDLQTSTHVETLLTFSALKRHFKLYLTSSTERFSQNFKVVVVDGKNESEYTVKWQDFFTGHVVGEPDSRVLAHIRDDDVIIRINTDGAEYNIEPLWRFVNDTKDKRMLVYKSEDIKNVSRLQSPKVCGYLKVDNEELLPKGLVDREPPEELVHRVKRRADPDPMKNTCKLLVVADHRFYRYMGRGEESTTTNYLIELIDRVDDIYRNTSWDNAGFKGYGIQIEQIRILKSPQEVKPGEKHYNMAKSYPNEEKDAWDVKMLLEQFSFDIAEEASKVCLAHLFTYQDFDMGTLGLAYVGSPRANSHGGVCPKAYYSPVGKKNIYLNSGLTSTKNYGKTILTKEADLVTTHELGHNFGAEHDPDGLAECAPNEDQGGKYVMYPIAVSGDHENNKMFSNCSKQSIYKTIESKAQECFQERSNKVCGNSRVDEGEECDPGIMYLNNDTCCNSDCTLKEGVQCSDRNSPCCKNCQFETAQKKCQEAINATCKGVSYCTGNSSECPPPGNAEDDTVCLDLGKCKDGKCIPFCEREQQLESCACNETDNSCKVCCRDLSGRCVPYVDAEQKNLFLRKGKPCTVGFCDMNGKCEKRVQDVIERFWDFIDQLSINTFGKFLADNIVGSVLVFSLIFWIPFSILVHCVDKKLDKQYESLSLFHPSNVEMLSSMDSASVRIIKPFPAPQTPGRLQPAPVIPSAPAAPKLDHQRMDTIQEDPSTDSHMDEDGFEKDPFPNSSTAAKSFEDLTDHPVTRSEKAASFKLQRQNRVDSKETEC
# Potassium channel subfamily K member 3 (Rattus norvegicus, UniProt O54912), sequence (O54912 whole entry, the tested form may be a part): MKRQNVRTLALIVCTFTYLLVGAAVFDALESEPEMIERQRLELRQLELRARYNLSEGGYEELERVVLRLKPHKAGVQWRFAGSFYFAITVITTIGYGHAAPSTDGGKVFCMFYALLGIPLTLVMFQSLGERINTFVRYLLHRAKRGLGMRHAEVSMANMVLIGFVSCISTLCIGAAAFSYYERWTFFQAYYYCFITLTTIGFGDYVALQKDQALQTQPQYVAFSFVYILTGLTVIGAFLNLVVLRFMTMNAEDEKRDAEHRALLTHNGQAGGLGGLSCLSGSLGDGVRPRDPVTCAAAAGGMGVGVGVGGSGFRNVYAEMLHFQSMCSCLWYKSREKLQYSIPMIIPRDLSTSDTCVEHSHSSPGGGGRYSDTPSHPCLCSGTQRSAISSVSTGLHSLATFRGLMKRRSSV
# Ion channel NompC, sequence (Q7T1G6 whole entry): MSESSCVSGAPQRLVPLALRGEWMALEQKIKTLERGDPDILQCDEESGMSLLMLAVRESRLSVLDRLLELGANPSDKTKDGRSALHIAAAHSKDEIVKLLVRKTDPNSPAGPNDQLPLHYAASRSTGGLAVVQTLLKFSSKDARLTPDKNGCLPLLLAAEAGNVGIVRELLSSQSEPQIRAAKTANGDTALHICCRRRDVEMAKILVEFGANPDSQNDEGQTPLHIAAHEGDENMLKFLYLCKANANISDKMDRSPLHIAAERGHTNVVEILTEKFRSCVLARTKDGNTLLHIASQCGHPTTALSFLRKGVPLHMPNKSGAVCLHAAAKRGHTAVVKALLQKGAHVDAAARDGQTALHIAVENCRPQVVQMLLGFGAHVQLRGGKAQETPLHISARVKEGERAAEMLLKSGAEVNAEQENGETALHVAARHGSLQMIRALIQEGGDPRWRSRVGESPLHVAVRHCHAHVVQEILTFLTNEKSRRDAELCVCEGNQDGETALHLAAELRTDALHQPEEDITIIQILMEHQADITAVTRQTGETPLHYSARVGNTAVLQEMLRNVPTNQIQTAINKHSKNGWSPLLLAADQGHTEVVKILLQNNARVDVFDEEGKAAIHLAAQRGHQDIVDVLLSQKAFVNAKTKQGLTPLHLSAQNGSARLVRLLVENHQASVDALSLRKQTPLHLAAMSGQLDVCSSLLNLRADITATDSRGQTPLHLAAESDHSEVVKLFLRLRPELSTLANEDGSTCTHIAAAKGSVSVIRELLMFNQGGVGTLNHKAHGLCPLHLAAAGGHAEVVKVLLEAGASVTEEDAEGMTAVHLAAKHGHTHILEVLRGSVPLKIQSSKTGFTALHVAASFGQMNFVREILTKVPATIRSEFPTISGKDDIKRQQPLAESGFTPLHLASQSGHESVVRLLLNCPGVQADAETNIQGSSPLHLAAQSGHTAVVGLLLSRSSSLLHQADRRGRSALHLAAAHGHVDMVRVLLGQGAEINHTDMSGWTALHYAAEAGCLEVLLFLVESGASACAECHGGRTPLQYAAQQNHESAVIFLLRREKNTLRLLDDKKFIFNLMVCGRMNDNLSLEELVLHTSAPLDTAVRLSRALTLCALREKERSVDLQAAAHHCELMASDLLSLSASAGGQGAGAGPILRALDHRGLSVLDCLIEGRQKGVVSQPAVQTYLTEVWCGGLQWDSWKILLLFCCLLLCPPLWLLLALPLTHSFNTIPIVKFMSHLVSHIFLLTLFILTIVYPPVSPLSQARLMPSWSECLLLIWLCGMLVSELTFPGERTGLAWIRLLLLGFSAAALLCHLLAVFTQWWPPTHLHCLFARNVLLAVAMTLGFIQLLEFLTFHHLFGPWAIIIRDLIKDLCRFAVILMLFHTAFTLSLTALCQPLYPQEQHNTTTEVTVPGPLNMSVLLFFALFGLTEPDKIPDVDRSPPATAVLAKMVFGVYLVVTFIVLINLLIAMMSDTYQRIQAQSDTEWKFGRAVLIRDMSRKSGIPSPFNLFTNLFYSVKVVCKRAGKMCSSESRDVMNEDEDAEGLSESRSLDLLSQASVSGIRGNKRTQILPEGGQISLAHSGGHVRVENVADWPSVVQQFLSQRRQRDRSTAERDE
# Galanin receptor type 3, sequence (O60755 whole entry): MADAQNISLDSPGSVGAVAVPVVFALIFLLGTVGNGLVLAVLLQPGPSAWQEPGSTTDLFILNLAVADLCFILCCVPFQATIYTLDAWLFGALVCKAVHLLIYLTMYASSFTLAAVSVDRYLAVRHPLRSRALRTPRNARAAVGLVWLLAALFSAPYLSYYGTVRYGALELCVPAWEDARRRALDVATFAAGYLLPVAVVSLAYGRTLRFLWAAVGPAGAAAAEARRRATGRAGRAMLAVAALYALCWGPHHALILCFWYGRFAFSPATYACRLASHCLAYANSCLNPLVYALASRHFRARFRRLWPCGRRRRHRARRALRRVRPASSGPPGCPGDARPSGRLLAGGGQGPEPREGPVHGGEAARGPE
# Potassium channel subfamily K member 9, sequence (Q9NPC2 whole entry, the tested form may be a part): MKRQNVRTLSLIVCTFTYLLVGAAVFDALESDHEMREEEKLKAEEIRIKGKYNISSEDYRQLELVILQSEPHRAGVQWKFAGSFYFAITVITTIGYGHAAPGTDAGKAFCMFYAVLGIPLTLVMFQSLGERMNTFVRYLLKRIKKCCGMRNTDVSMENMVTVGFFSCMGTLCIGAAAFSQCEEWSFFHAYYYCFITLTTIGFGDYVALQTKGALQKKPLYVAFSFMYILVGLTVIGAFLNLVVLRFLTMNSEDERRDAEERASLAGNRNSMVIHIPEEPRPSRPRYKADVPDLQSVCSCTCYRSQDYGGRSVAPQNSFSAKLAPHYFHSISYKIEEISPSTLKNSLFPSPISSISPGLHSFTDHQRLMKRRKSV
# Nonstructural protein 1, sequence (Q194T2 whole entry): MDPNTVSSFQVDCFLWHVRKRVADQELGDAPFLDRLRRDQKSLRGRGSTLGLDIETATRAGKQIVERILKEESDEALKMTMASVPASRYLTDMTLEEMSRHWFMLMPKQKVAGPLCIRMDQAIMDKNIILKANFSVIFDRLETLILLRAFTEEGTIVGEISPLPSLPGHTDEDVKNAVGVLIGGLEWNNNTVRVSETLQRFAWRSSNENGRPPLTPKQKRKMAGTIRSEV
# Paired box protein Pax-8, sequence (Q06710 whole entry): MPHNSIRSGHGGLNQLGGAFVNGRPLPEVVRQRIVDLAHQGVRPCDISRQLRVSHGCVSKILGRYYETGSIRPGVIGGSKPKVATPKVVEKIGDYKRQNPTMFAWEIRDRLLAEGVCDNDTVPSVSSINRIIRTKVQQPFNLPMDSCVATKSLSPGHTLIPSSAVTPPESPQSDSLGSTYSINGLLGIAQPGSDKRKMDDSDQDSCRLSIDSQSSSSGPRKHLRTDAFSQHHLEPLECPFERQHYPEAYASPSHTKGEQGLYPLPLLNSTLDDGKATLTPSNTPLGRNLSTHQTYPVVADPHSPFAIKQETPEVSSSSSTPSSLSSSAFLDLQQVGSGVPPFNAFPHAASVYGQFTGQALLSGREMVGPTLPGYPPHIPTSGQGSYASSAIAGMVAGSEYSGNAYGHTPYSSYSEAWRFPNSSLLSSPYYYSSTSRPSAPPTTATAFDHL
smiles,measurement,setting,value
CCOC(=O)c1c(CSc2ccc(C)cc2)oc2ccc(O)cc12,EC50,[1],4.33 µM (active)
same,EC50,[2],> 29.9 µM (not active)
same,AC50,[3],3.94 µM (active)
same,IC50,[4],> 69.6 µM (inactive)
C=CCN1/C(=C/c2ccc3cc(C)ccc3[n+]2CC)C=Cc2ccccc21,EC50,[5],< 0.1 µM (active)
same,EC50,[6],6.53 µM (active)
same,IC50,[7],> 39.5 µM (inactive)
same,IC50,[8],11.7 µM (active)
same,IC50,[9],35.8 µM (inactive)
same,IC50,[10],> 0.123 µM (active)
same,EC50,[11],> 29.9 µM (inactive)
same,EC50,[12],0.054 µM (active)
C[C@@H]1CN([C@@H](C)CO)C(=O)c2cc(NS(=O)(=O)c3ccc(F)cc3)ccc2O[C@@H](C)CCCCO[C@@H]1CN(C)Cc1ccc(C(F)(F)F)cc1,AC50,[13],8.92 µM (active)
same,AC50,[14],62.8 µM (active)
same,AC50,[15],40.5 µM (active)
same,AC50,[16],57.6 µM (active)
same,AC50,[17],55.4 µM (active)
CC(C)N1C[C@H](C)[C@@H](CN(C)C(=O)OC(C)(C)C)Oc2c(C#N)cccc2C1=O,IC50,[18],> 20 µM (inactive)
COc1ccccc1NC(=O)c1cccc(NC(=O)c2ccccc2C(F)(F)F)c1,IC50,[19],1.32 µM (active)
same,IC50,[20],0.149 µM (active)
same,IC50,[21],0.042 µM (active)
